{
  "source": "patent US11634394B2",
  "about": "“Process for preparation of fungicidally active triazole compounds” (UPL LTD, priority 2018, dated 2023)",
  "test": "Particle size measurement by Malvern Particle Size Analyzer (Mastersizer-Hydro 2000 S M)",
  "assay_type": "physicochemical",
  "details": "1 g in 100 ml dispersant medium; prothioconazole prepared according to Example 3",
  "protocol": "Particle Size Measurement by Malvern Particle Size Analyzer\nSample preparation and method of analysis: 1 g of Prothioconazole was taken in 100 ml dispersant medium. The content was mixed well and analyzed in Malvern Mastersizer-Hydro 2000 S M.",
  "data": [
    {"smiles": "OC(Cc1ccccc1Cl)(Cn1ncnc1S)C1(Cl)CC1", "note": "(centres unmarked) [Prothioconazole, 2-(1-chloro-cyclopropyl)-1-(2-chlorophenyl)-3-(5-mercapto-1,2,4-triazol-1-yl)-propan-2-ol]", "values": [
      {"measurement": "d (0.5) particle size (volume distribution)", "result": 202.967, "unit": "um"},
      {"measurement": "d (0.9) particle size (volume distribution)", "result": 367.723, "unit": "um"}
    ]}
  ]
}
